{"source": "paper PMC10268255", "about": "(Proceedings of the National Academy of Sciences of the …, 2023)", "key": {"αVβ6 ectodomain": {"molecular_target": "αVβ6 ectodomain (Homo sapiens, UniProt P06756+P18564)", "assay": "Fluorescence polarization", "type": "binding", "conditions": "FP competition"}, "αVβ8 ectodomain": {"molecular_target": "αVβ8 ectodomain (Homo sapiens, UniProt P06756+P26012)", "assay": "Fluorescence polarization", "type": "binding", "conditions": "ratio of FP KDs, αVβ8 vs αVβ6"}, "integrin αVβ6 ectodomain [1]": {"molecular_target": "integrin αVβ6 ectodomain (UniProt P06756)", "assay": "fluorescence polarisation"}, "integrin αVβ8 ectodomain": {"molecular_target": "integrin αVβ8 ectodomain (UniProt P06756 31-992; P26012 43-684)", "assay": "fluorescence polarisation"}, "integrin αVβ6 ectodomain [2]": {"molecular_target": "integrin αVβ6 ectodomain (UniProt P06756 31-992; P18564 22-709)", "assay": "fluorescence polarisation"}}}
{"molecule": "Ac-GTSTYTSGDQKTIKSTRKKNSGK-NH2 [23-mer]", "values": [{"measurement": "Fold higher affinity for αVβ6 than the TGF-β2 9-mer", "setting": "αVβ6 ectodomain", "result": 20, "unit": "fold"}, {"measurement": "Fold lower affinity of αVβ8 compared to αVβ6", "setting": "αVβ8 ectodomain", "result": "5,500 fold"}]}
{"molecule": "Ac-YTSGDQKTIKSTR-NH2 [13-mer]", "values": [{"measurement": "Fold lower affinity of αVβ8 compared to αVβ6", "setting": "αVβ8 ectodomain", "result": "8,100 fold"}]}
{"molecule": "human proTGF-β2 C24S, N140R, D5G (shaved) (natural protein)", "values": [{"measurement": "fold higher affinity than the TGF-β2 9-mer", "setting": "integrin αVβ6 ectodomain [1]", "result": 170, "unit": "fold"}]}
{"molecule": "Ac-YTSGDQKTIKSTR-NH2", "note": "[TGF-β2 13-mer peptide Y259TSGDQKTIKSTR271]", "values": [{"measurement": "Kd", "setting": "integrin αVβ8 ectodomain", "result": 11.4, "unit": "mM"}]}
{"molecule": "Ac-YTSGDQATIKSTR-NH2 (peptide, UniProt P61812 259-271, looked up)", "note": "[TGF-β2 13-mer peptide K265A]", "values": [{"measurement": "fold increase in affinity over the wild-type 13-mer", "setting": "integrin αVβ6 ectodomain [2]", "result": 6.3, "unit": "fold"}]}
